Measurements: PMC11606603, “The membrane domains of mammalian adenylyl cyclases are lipid receptors” (eLife, 2024)
Values joined by “and” are separate entries in the source; they are usually repeats but may differ in a detail not shown here. Equal values may be shown once. “Also recorded” adds a separate entry of the source.

Assays:
Format in all cases: biochemical
[1] = target: T1, mAC3 (Homo sapiens, UniProt O60266); experiment: AC assay, Gsα-stimulated mAC3 in membranes from transfected HEK293 cells; conditions: for mAC3 activity; stimulated by 300nM Gsα + 20µM Oleic acid: 37°C
T1 construct: Human mAC genes were from GenScript and fitted with a C-terminal FLAG-tag; FLAG (C); made in house; host or cells: HEK293, permanently transfected; membrane preparation
Summary of the method: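 EC50 and IC50 values come from cAMP production, read with a Cisbio cAMP kit and converted via a standard curve. Assay mix held 1 mM ATP, 2 mM MgCl2, 3 mM creatine phosphate and 60 μg/ml creatine kinase in 50 mM MOPS pH 7.5, using transfected HEK293 membranes.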

[2] = target: T2, mAC1 (Homo sapiens, UniProt Q08828); experiment: AC assay, Gsα-stimulated mAC1 in membranes from transfected HEK293 cells; conditions: 20 µM; in words
T2 construct: Human mAC genes were from GenScript and fitted with a C-terminal FLAG-tag; FLAG (C); made in house; host or cells: HEK293, permanently transfected; membrane preparation
Summary of the method: (§1)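 cAMP formation was quantified by HTRF against a cAMP standard curve, with EC50 or IC50 derived by curve fitting. Reactions contained 1 mM ATP, 2 mM MgCl2, 3 mM creatine phosphate, 60 μg/ml creatine kinase and 50 mM MOPS pH 7.5, using membranes of stably transfected HEK293 cells carrying FLAG-tagged human AC.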

[3] = target: T3, mAC8 (Homo sapiens, UniProt P40145); experiment: AC assay, Gsα-stimulated mAC8 in membranes from transfected HEK293 cells
T3 construct: Human mAC genes were from GenScript and fitted with a C-terminal FLAG-tag; FLAG (C); made in house; host or cells: HEK293, permanently transfected; membrane preparation
Summary of the method: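 Human AC, FLAG-tagged, stably expressed in HEK293; membranes used as enzyme. 1 mM ATP, 2 mM MgCl2, ATP regeneration, MOPS pH 7.5; cAMP kit readout.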

[4] = target: T4, mAC4 (Homo sapiens, UniProt Q8NFM4); experiment: AC assay, Gsα-stimulated mAC4 in membranes from transfected HEK293 cells
T4 construct: Human mAC genes were from GenScript and fitted with a C-terminal FLAG-tag; FLAG (C); made in house; host or cells: HEK293, permanently transfected; membrane preparation
T4 sequence (Q8NFM4 1-1077): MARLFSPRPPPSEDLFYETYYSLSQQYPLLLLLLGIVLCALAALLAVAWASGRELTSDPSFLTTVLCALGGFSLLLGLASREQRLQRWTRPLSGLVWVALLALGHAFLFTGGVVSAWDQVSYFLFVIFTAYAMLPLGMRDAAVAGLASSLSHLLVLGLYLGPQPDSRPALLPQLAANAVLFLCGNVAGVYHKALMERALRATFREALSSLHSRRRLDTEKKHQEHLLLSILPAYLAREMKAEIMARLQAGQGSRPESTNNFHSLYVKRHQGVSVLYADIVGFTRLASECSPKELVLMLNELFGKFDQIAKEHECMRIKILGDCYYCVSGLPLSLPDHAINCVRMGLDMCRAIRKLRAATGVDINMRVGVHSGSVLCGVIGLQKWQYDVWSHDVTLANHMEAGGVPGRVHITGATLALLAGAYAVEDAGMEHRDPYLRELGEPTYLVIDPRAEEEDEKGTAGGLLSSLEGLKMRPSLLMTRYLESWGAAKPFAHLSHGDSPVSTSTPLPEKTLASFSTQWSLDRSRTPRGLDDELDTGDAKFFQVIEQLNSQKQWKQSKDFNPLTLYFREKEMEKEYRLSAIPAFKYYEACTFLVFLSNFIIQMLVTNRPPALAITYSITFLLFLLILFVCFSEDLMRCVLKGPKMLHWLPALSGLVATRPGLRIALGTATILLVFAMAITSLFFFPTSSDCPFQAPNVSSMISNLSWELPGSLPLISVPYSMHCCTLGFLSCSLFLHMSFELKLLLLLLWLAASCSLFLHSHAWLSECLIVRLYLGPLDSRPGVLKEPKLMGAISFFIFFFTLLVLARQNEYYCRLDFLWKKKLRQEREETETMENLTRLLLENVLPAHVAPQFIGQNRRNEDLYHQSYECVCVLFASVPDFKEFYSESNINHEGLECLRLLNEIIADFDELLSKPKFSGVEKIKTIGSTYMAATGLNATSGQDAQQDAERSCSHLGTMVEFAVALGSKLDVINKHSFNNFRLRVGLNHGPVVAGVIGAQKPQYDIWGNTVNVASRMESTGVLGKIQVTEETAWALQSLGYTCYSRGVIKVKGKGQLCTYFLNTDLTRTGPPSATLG
Summary of the method: as §1

[5] = target: T5, mAC6 (Homo sapiens, UniProt O43306); experiment: AC assay, Gsα-stimulated mAC6 in membranes from transfected HEK293 cells
T5 construct: Human mAC genes were from GenScript and fitted with a C-terminal FLAG-tag; FLAG (C); made in house; host or cells: HEK293, permanently transfected; membrane preparation
Summary of the method: as §1

[6] = target: T6, mAC5 (Homo sapiens, UniProt O95622); experiment: AC assay, Gsα-stimulated mAC5 in membranes from transfected HEK293 cells
T6 construct: Human mAC genes were from GenScript and fitted with a C-terminal FLAG-tag; FLAG (C); made in house; host or cells: HEK293, permanently transfected; membrane preparation
Summary of the method: as §1

[7] = Figure 5 A, 20 µM oleic acid, 300 nM Gsα

T3 sequence (P40145 whole entry): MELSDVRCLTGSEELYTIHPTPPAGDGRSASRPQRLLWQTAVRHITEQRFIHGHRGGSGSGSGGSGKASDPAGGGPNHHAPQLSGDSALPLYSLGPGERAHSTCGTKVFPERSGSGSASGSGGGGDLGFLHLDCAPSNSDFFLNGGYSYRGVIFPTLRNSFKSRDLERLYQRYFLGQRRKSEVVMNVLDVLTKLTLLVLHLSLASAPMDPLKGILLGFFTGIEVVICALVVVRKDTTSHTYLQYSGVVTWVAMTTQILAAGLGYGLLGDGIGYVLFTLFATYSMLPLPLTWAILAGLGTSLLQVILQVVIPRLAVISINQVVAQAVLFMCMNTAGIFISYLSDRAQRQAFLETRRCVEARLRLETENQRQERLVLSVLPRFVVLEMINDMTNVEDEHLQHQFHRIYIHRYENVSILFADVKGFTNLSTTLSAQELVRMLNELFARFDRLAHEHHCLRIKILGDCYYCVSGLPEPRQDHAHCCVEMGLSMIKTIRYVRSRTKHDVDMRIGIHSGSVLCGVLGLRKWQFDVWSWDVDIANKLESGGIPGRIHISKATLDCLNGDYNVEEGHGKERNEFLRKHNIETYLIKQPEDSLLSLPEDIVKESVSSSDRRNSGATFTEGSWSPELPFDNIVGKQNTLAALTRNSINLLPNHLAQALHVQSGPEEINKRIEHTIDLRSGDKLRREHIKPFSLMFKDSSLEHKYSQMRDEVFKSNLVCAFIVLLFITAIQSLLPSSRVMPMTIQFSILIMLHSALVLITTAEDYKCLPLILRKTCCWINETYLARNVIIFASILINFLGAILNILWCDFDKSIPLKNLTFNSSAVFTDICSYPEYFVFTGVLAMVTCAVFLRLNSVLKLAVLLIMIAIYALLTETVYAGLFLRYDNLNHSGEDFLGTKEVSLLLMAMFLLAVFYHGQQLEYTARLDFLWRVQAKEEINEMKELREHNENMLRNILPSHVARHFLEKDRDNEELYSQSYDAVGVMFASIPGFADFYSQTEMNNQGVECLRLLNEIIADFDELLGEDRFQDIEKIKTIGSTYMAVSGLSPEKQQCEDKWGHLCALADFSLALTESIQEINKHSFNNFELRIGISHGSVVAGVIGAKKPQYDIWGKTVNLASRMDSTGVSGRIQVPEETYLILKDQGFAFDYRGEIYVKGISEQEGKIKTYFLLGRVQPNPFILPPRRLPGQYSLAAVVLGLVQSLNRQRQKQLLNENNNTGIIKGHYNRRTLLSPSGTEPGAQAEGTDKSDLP
T5 sequence (O43306 whole entry): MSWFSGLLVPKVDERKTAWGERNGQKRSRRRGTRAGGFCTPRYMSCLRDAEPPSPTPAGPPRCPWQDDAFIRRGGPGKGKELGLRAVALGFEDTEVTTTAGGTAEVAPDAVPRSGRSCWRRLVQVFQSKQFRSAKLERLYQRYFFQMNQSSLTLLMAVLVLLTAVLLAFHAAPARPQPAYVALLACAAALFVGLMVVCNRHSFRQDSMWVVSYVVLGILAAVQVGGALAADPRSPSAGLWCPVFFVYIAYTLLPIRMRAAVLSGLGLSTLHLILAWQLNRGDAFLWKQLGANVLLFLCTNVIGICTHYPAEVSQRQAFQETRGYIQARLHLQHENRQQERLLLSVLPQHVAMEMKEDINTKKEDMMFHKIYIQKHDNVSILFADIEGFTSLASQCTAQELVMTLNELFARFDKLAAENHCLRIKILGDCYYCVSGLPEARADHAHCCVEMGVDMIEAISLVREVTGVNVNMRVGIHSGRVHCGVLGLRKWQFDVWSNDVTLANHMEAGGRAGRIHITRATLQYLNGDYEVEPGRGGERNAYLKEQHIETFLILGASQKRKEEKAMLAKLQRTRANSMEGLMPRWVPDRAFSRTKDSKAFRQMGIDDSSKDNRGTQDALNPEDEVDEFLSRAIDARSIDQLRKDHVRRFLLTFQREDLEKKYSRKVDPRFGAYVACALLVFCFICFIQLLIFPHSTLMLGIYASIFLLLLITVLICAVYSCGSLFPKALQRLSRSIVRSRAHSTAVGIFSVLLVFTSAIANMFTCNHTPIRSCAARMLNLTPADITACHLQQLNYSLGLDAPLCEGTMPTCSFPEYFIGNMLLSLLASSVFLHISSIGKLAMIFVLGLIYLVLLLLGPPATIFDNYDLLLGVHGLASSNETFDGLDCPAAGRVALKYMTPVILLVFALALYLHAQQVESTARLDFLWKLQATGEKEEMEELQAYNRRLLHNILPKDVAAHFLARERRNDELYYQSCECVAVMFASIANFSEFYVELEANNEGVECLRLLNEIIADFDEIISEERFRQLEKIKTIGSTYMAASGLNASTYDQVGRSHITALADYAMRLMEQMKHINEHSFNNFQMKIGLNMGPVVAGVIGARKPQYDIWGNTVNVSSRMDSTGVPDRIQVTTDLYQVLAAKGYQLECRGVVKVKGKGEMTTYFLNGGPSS
T1 sequence (O60266 whole entry): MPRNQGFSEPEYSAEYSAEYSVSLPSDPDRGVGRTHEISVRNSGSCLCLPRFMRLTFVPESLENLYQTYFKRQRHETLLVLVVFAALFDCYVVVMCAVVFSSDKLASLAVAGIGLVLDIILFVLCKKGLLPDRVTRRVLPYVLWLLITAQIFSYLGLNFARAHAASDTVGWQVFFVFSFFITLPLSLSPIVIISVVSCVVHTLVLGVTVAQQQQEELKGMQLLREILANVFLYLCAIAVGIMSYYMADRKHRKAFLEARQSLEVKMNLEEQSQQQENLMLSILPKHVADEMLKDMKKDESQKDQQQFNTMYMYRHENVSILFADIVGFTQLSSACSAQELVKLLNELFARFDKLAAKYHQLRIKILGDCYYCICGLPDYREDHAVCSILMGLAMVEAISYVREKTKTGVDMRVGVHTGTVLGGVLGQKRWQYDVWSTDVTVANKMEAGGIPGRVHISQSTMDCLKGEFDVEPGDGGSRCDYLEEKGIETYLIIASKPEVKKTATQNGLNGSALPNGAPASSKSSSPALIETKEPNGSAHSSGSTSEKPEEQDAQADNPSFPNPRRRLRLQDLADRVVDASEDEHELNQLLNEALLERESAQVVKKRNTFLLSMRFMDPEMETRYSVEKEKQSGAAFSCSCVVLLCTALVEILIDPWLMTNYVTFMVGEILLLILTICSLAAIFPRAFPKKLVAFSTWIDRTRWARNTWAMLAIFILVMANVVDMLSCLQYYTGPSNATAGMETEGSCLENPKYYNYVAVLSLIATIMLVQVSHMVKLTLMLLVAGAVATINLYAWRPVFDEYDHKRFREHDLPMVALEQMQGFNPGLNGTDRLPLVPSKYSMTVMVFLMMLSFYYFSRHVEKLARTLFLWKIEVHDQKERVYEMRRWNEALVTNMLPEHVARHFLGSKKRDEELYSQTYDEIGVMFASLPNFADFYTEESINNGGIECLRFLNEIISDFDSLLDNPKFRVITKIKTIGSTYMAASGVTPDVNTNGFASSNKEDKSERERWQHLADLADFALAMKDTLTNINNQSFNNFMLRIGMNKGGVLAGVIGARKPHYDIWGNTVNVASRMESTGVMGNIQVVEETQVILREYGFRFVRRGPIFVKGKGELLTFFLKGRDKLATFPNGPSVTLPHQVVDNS
T1 sequence (P63092 whole entry Q227L partner): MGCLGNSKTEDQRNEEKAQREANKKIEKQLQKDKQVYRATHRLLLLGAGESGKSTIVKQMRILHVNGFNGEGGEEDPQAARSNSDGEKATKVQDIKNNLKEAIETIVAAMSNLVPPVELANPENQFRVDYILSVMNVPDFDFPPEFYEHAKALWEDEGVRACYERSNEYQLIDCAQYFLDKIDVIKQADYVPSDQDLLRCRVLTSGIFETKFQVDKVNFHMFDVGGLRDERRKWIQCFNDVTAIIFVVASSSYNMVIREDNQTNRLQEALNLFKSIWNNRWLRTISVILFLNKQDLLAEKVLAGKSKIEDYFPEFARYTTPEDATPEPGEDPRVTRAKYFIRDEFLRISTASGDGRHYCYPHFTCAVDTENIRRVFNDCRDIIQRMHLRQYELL
T2 sequence (Q08828 whole entry): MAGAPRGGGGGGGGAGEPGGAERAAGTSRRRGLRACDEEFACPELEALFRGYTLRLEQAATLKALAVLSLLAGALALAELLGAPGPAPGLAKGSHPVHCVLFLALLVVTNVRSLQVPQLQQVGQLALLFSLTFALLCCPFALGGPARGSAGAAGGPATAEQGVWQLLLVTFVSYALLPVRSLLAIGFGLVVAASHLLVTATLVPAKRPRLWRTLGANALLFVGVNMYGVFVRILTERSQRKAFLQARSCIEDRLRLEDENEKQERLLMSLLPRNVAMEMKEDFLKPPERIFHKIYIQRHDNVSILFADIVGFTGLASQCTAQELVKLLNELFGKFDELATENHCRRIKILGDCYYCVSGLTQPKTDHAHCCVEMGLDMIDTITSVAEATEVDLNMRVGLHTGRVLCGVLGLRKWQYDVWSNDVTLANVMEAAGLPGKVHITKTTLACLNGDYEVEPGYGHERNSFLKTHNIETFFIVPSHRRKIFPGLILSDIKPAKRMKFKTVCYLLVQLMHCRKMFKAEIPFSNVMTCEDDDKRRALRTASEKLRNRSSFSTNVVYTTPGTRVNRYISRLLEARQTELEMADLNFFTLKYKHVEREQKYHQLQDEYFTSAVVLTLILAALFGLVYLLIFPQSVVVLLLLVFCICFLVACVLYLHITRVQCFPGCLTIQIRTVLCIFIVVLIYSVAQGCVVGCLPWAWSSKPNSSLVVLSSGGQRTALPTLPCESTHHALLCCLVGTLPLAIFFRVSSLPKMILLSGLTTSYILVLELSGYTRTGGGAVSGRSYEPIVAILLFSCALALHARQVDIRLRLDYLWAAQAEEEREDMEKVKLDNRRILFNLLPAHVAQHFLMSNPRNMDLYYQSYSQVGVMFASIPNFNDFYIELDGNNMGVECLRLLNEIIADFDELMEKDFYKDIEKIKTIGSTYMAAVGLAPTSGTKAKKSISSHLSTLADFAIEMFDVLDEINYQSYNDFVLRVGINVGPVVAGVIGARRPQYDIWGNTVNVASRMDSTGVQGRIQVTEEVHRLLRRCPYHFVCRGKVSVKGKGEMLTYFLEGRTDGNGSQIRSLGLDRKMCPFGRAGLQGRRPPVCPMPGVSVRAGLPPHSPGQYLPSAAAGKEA

CCCCCCCC/C=C\CCCCCCCC(=O)O [Oleic acid, Oleic ((9Z)-octadecenoic) acid]
mAC3 activity; stimulated by 300nM Gsα + 20µM Oleic acid ([1]; time 10 min): 3.46 cAMP nmol/mg | mAC3 activity; stimulated by 300nM Gsα + 20µM Oleic acid ([1]; time 15 min): 4.543 cAMP nmol/mg and 5.759 cAMP nmol/mg | mAC3 activity; stimulated by 300nM Gsα + 20µM Oleic acid ([1]; time 20 min): 6.22 cAMP nmol/mg and 8.564 cAMP nmol/mg | mAC3 activity; stimulated by 300nM Gsα + 20µM Oleic acid ([1]; time 25 min): 9.573 cAMP nmol/mg and 11.033 cAMP nmol/mg | Vmax, mAC3 ([1]; with 20 µM oleic acid): 1.23 nmol cAMP•mg^−1•min^−1 | Effect of lipid on 300 nM Gsα-stimulated mAC1 [2]: slightly attenuated | mAC8 activity [%] (100% = 300nM Gsα stimulation) ([3]; 20µM fatty acid concentration): 134% and 139% | Effect of lipid on 300 nM Gsα-stimulated mAC8 ([3]; 20 µM, in words): unaffected | mAC activity [%] (100% = 300nM Gsα stimulation); 20µM Oleic acid concentration, mAC8 [3, 7]: 134% and 139% | mAC4 activity [%] (100% = 300nM Gsα stimulation); 20µM fatty acid concentration ([4]; 20 µM fatty acid, 300 nM Gsα, single experiments): 100% and 72% and 120% and 92% | Effect of lipid on 300 nM Gsα-stimulated mAC4 ([4]; 20 µM, in words): unaffected | mAC activity [%] (100% = 300nM Gsα stimulation); 20µM Oleic acid concentration, mAC4 [4, 7]: 72% and 92% and 64% and 100% | mAC6 activity [%] (100% = 300nM Gsα stimulation) ([5]; 20µM fatty acid concentration): 92% and 80% and 133% | Effect of lipid on 300 nM Gsα-stimulated mAC6 ([5]; 20 µM, in words): unaffected | mAC activity [%] (100% = 300nM Gsα stimulation); 20µM Oleic acid concentration, mAC6 [5, 7]: 92% and 80% and 133% | mAC5 activity [%] (100% = 300nM Gsα stimulation) ([6]; 20µM fatty acid concentration): 93% and 117% and 135% and 138% | Effect of lipid on Gsα-stimulated mAC5 ([6]; 20 µM, in words): not enhanced; also recorded: unaffected | mAC activity [%] (100% = 300nM Gsα stimulation); 20µM Oleic acid concentration, mAC5 [6, 7]: 135% and 138% and 161% and 84% and 105% and 93% and 117% | activity, mAC5 + 20µM Oleic acid ([6]; Gsα 30 nM): 0.080 cAMP nmol/mg/min | activity, mAC5 + 20µM Oleic acid ([6]; Gsα 60 nM): 0.233 cAMP nmol/mg/min and 0.334 cAMP nmol/mg/min | activity, mAC5 + 20µM Oleic acid ([6]; Gsα 100 nM): 0.353 cAMP nmol/mg/min and 0.362 cAMP nmol/mg/min | activity, mAC5 + 20µM Oleic acid ([6]; Gsα 300 nM): 0.752 cAMP nmol/mg/min and 1.165 cAMP nmol/mg/min | activity, mAC5 + 20µM Oleic acid ([6]; Gsα 450 nM): 1.160 cAMP nmol/mg/min and 1.405 cAMP nmol/mg/min | activity, mAC5 + 20µM Oleic acid ([6]; Gsα 600 nM): 1.213 cAMP nmol/mg/min and 1.684 cAMP nmol/mg/min | activity, mAC5 + 20µM Oleic acid ([6]; Gsα 800 nM): 1.245 cAMP nmol/mg/min and 1.702 cAMP nmol/mg/min | activity, mAC5 + 20µM Oleic acid ([6]; Gsα 1000 nM): 1.415 cAMP nmol/mg/min and 1.818 cAMP nmol/mg/min | mAC5 activity [%] (100% = 300nM Gsα stimulation) ([6]; fatty acid 1 µM, individual experiments): 126% and 196% and 115% and 78% and 64% | mAC5 activity [%] (100% = 300nM Gsα stimulation) ([6]; fatty acid 3 µM, individual experiments): 142% and 91% and 87% | mAC5 activity [%] (100% = 300nM Gsα stimulation) ([6]; fatty acid 6 µM, individual experiments): 146% and 127% and 77% and 90% | mAC5 activity [%] (100% = 300nM Gsα stimulation) ([6]; fatty acid 10 µM, individual experiments): 126% and 140% and 134% and 93% | mAC5 activity [%] (100% = 300nM Gsα stimulation) ([6]; fatty acid 20 µM, individual experiments): 93% and 117% and 135% and 138% | activity [%] (100% = 300nM Gsα stimulation) ([6]; mAC5, 20µM Oleic acid concentration, Figure 9 C): 161% and 84% and 93% and 117% and 135% and 138%
